According to US20090203661A1, “Betulinic acid, derivatives and analogs thereof and uses therefor” (priority 2006, published 2009):

How the values were obtained:
[1] = tested on: LNCaP cell xenografts; assay: LNCaP xenograft in athymic nude mice; format: in vivo
Protocol: Male athymic BALB/c nude mice (age 4-6 weeks) were purchased from Harlan (Indianapolis, Ind.). LNCaP cells (1×106) were implanted with matrigel (BD Biosciences, San Jose, Calif.) subcutaneously into the flank of each mouse. Ten days after cell inoculation, animals were divided into three groups of 10 mice each. The first group received 100 μL vehicle (1% DMSO in corn oil) by oral gavage and the second and third groups of animals received 10 and 20 mg/kg/d doses of BA in vehicle every second day for 14 days (7 doses). The mice were weighed, and tumor areas were measured throughout the study. After 22 days, the animals were sacrificed, final body and tumor weights were determined and selected tissues were further examined by routine hematoxylin and eosin staining and immunohistochemical analysis.
Tissue sections ([…] thick) mounted on poly-Lysine-coated slides were deparaffinized by standard methods. Endogenous peroxidase was blocked by the use of 3% hydrogen peroxide in PBS for 10 min. Antigen retrieval for VEGF and CD31 staining was done for 10 min in 10 mmol/L sodium citrate buffer (pH 6) heated at 95° C. in a steamer followed by cooling for 15 min. […] Hematoxylin and eosin staining was determined as previously described.

[2] = tested on: LNCaP cells; assay: Western blot analysis of protein expression in LNCaP cells; format: cell-based, Human
Protocol: (§1) Human carcinoma cell lines LNCaP (prostate) and SK-MEL2 (melanoma) were obtained from American Type Culture Collection (Manassas, Va.). Cell lines were maintained in RPMI 1640 (Sigma) supplemented with 0.22% sodium bicarbonate, 0.011% sodium pyruvate, 0.45% glucose, 0.24% HEPES, 10% FBS, and 10 mL/L of 100× Antibiotic Antimycotic solution (Sigma). Cells were maintained at 37° C. in the presence of 5% CO2.
An equal amount of cell lysate (60 μg/well) was separated by 7.5% to 12% SDS-PAGE, which was followed by immunoblotting onto polyvinylidene difluoride (Bio-Rad, Hercules, Calif.). After blocking in TBST-Blotto (10 mmol/L Tris-HCl, 150 mmol/L NaCl (pH 8.0), 0.05% Triton X-100, 5% nonfat dry milk) for 30 min, the membranes were incubated with primary antibodies overnight at 4° C. and then with horseradish peroxidase-conjugated secondary antibody for 2 hr at room temperature. Proteins were visualized using the chemiluminescence substrate (Perkin-Elmer Life Sciences) for 1 min and exposed to Kodak X-OMAT AR autoradiography film (Eastman Kodak, Rochester, N.Y.).

[3] = tested on: LNCaP prostate cancer cells; assay: Cell proliferation (cell counting), LNCaP prostate cancer cells; format: cell-based; details: Homo sapiens, 144 h, 6 days, read-out: 6-day IC50 values for growth inhibition
Protocol: as §1
(§2) Prostate and melanoma cancer cells (2×10^4 per well) were plated in 12-well plates and allowed to attach for 24 hr. The medium was then changed to DMEM:Ham's F-12 medium containing 2.5% charcoal-stripped FBS and either vehicle (DMSO) or different concentrations of the compound were added. […] Each experiment was done in triplicate and results are expressed as means±SE for each set of experiments.

[4] = tested on: SK-MEL2 melanoma cells; assay: Cell proliferation (cell counting), SK-MEL2 melanoma cells; format: cell-based; details: Homo sapiens, SK-MEL-2, 144 h; SK-MEL2, 6 days; read-out: 6-day IC50 values for growth inhibition
Protocol: as §1, §2

[5] = tested on: SW480 cells; assay: Apoptosis (PARP cleavage, Western blot) in SW480 cells; format: cell-based, human; details: SW480, 24 hr
Protocol: (§3) Induction of KLF4 in HT-29 (FIG. 12A) and SW480 (FIG. 12B) cells. Cells were treated with different concentrations of CDODA isomers or T007 alone or in combination, and KLF4 mRNA levels were determined by real time PCR. […] KLF4 mRNA levels were not induced in SW480 cells by BA derivatives. FIGS. 12C-12D show induction of apoptosis. Panc28 (FIG. 12C) and SW480 (FIG. 12D) cells were treated for 24 hr with betulinic acid and related compounds and whole cell lysates were examined by Western blot analysis.
(§4) SW480, HT-29, HCT-15 and Panc-28 (3×10^5) colon cancer cells were seeded in 6-well tissue culture plates in DMEM/Ham's F-12 medium containing 2.5% charcoal-stripped FBS. Protein is extracted from the cells treated either with vehicle or indicated compounds suspended for 24 hr except for caveolin-1 protein which was done for 72 hr. Samples were extracted in high salt buffer [50 mmol/L HEPES, 500 mmol/L NaCl, 1.5 mmol/L MgCl2, 1 mmol/L EGTA, 10% glycerol, and 1% Triton X-100 (pH 7.5), and 5 μL/mL protease inhibitor cocktail (Sigma-Aldrich)]. Samples were incubated at 100° C. for 2 min, separated on either 10% or 12% SDS-PAGE gels and then transferred to polyvinylidene difluoride membrane (PVDF; Bio-Rad, Hercules, Calif.). […]

[6] = tested on: Panc28 cells; assay: Apoptosis (PARP cleavage, Western blot) in Panc28 cells; format: cell-based, human; details: Panc28, 24 hr
Protocol: as §3, §4

For C=C(C)[C@@H]1CC[C@]2(C(=O)O)CC[C@]3(C)[C@H](CC[C@@H]4[C@@]5(C)CC[C@H](O)C(C)(C)[C@@H]5CC[C@]43C)[C@@H]12 [betulinic acid, Betulinic acid], the “changes in organ or body weights or histopathology of liver and other tissues” value ([1]; 10 and 20 mg/kg/d, data not shown) was “no treatment-related changes”, the “mitotic activity in tumors” value ([1]; treated mice, corn oil group 6-8) was 1-2 microfigures/hpf and the “concentrations inducing tumor suppressor gene KLF6” value [2] was 10 to 15 µM. For the same compound, the “treatment time at which lower expression of Sp proteins is first observed” value ([2]; 15 μM) was 12 h, the “lowest doses at which Sp protein degradation and PARP cleavage are observed” value ([2]; 48 or 72 hr) was 1 to 2.5 µM and the “concentration inducing downregulation of Sp1, Sp3 and Sp4 proteins” value ([2]; 24 hr) was 5 to 10 µM. For the same compound, the “concentration inducing downregulation of cyclin D1” value ([2]; 24 hr exposure) was no less than 10 µM, the IC50 [3] was 1000 to 5000 nM and the IC50 [4] was 5 to 10 µM.

In the case of CC(C)C1CCC2(C(=O)O)CCC3(C)C(CCC4C5(C)C=C(C#N)C(=O)C(C)(C)C5CCC43C)C12 (centres unmarked) [CN-BA], the “caspase-dependent PARP cleavage” value [5] is reported as “induced caspase-dependent PARP cleavage” and the “caspase-dependent PARP cleavage” value [6] is reported as “induced caspase-dependent PARP cleavage”.
